Tested on: L. acidophilus NCFM
Test: RNA-seq transcriptional analysis of L. acidophilus NCFM growing on plant glycosides
Assay type: cell-based, Lactobacillus acidophilus
[1] = LBA0329 Putative cell division protein, COG D
[2] = LBA0466 Hypothetical protein, COG C
[3] = LBA0500 MSM operon repressor, COG K
[4] = LBA0545 Hypothetical protein, COG L
[5] = LBA0547 Putative site-specific recombinase, COG L
[6] = LBA0573 Putative transcriptional regulator, COG K
[7] = LBA0607 Putative transcriptional regulator, COG K
[8] = LBA0672 Putative phosphate starvation inducible protein stress related, COG J
[9] = LBA0753 Multi-drug-type permease, COG GEPR
[10] = LBA0886 Sugar kinase-putative transcriptional regulator, COG KG
[11] = LBA0887 Hypothetical protein, COG C
[12] = LBA0897 Putative Cro-like protein, COG K
[13] = LBA0910 L-lactate dehydrogenase, COG C
[14] = LBA1021 Putative transcriptional regulator, COG K
[15] = LBA1220 Pyridine mercuric reductase, COG C
[16] = LBA1392 Mucus binding protein precursor Mub, COG J
[17] = LBA1411 Fumarate reductase flavoprotein subunit, COG CS
[18] = LBA1436 Glycerol uptake facilitator protein, COG G
[19] = LBA1457 Galactose-1-epimerase, COG G
[20] = LBA1458 Galactose-1-phosphate uridylyltransferase, COG G
[21] = LBA1462 Beta-galactosidase, COG G
[22] = LBA1463 Lactose permease, COG G
[23] = LBA1465 Transcription repressor of beta-galactosidasegene, COG K
[24] = LBA1467 Beta-galactosidase large subunit (lactase), COG G
[25] = LBA1468 Beta-galactosidase small subunit, COG G
[26] = LBA1481 D-ribose-binding protein precursor, COG G
[27] = LBA1482 Ribose ABC transporter, COG G
[28] = LBA1483 Ribose ABC transporter ATP binding protein, COG G
[29] = LBA1484 D-ribose pyranase, COG G
[30] = LBA1494 Lincomycin-resistance protein, COG GEPR
[31] = LBA1607 Phosphatidylserine decarboxylase precursor, COG I
[32] = LBA1632 NAD-dependent aldehyde dehydrogenase, COG C
[33] = LBA1653 Nicotinamide mononucleotide, COG H
[34] = LBA1684 Putative PTS system IIA component, COG G
[35] = LBA1689 Maltose-6′-phosphate Oucosidase, COG G
[36] = LBA1700 Transcriptional regulator-type, COG K
[37] = LBA1701 Melibiose operon regulatory protein, COG K
[38] = LBA1705 PTS system IIBC component, COG G
[39] = LBA1708 Transcriptional antiterminator, COG K
[40] = LBA1710 Thermostable pullulanase, COG G
[41] = LBA1812 Alpha-glucosidase II, COG G
[42] = LBA1870 Maltose phosphorylase, COG G
[43] = LBA1872 Oligo-1,6-glucosidase, COG G
[44] = LBA1955 Transcription regulator family protein, COG K
[45] = gene LBA0046 (Hypothetical protein)
[46] = gene LBA0149 (Putative nucleotide-binding protein)
[47] = gene LBA0263 (Hypothetical protein)

OCc1ccccc1O[C@@H]1O[C@H](CO)[C@@H](O)[C@H](O)[C@H]1O [Salicin]
Log2 differential normalized TPM ratio compared to glucose (LBA0016 Fructokinase, COG KG): 1.7
Log2 differential normalized TPM ratio compared to lactose (LBA0016 Fructokinase, COG KG): 0.5
Transcripts per million (rpm) (LBA0016 Fructokinase, COG KG): 300.8 rpm
Log2 differential normalized TPM ratio compared to glucose [1]: 0.4
Log2 differential normalized TPM ratio compared to lactose [1]: 0
Transcripts per million (rpm) [1]: 22.1 rpm
Log2 differential normalized TPM ratio compared to glucose [2]: 1.3
Log2 differential normalized TPM ratio compared to lactose [2]: -0.2
Transcripts per million (rpm) [2]: 238.1 rpm
Log2 differential normalized TPM ratio compared to glucose [3]: 1.4
Log2 differential normalized TPM ratio compared to lactose [3]: −0.3
Transcripts per million (rpm) [3]: 138.7 rpm
Log2 differential normalized TPM ratio compared to glucose [4]: 1.8
Log2 differential normalized TPM ratio compared to lactose [4]: −0.3
Transcripts per million (rpm) [4]: 259 rpm
Log2 differential normalized TPM ratio compared to glucose [5]: 1.5
Log2 differential normalized TPM ratio compared to lactose [5]: −0.3
Transcripts per million (rpm) [5]: 32.5 rpm
Log2 differential normalized TPM ratio compared to glucose [6]: −1.1
Log2 differential normalized TPM ratio compared to lactose [6]: −1.2
Transcripts per million (rpm) [6]: 43.7 rpm
Log2 differential normalized TPM ratio compared to glucose [7]: 0.8
Log2 differential normalized TPM ratio compared to lactose [7]: 0.3
Transcripts per million (rpm) [7]: 86.7 rpm
Log2 differential normalized TPM ratio compared to glucose [8]: 1.1
Log2 differential normalized TPM ratio compared to lactose [8]: 0.2
Transcripts per million (rpm) [8]: 3596.1 rpm
Log2 differential normalized TPM ratio compared to glucose [9]: 0.5
Log2 differential normalized TPM ratio compared to lactose [9]: 1.2
Transcripts per million (rpm) [9]: 70.4 rpm
Log2 differential normalized TPM ratio compared to glucose [10]: 0.3
Log2 differential normalized TPM ratio compared to lactose [10]: 0
Transcripts per million (rpm) [10]: 8.1 rpm
Log2 differential normalized TPM ratio compared to glucose [11]: 1.5
Log2 differential normalized TPM ratio compared to lactose [11]: 0.2
Transcripts per million (rpm) [11]: 160.2 rpm
Log2 differential normalized TPM ratio compared to glucose [12]: 0.1
Log2 differential normalized TPM ratio compared to lactose [12]: 2.5
Transcripts per million (rpm) [12]: 2.8 rpm
Log2 differential normalized TPM ratio compared to glucose [13]: 1.2
Log2 differential normalized TPM ratio compared to lactose [13]: 0.2
Transcripts per million (rpm) [13]: 301.8 rpm
Log2 differential normalized TPM ratio compared to glucose [14]: −0.5
Log2 differential normalized TPM ratio compared to lactose [14]: −0.8
Transcripts per million (rpm) [14]: 108.6 rpm
Log2 differential normalized TPM ratio compared to glucose [15]: 1.7
Log2 differential normalized TPM ratio compared to lactose [15]: 0.7
Transcripts per million (rpm) [15]: 654.9 rpm
Log2 differential normalized TPM ratio compared to glucose [16]: 0.1
Log2 differential normalized TPM ratio compared to lactose [16]: 0.3
Transcripts per million (rpm) [16]: 114.4 rpm
Log2 differential normalized TPM ratio compared to glucose [17]: 1.4
Log2 differential normalized TPM ratio compared to lactose [17]: 0.3
Transcripts per million (rpm) [17]: 5.9 rpm
Log2 differential normalized TPM ratio compared to glucose [18]: 3.8
Log2 differential normalized TPM ratio compared to lactose [18]: 0
Transcripts per million (rpm) [18]: 37.6 rpm
Log2 differential normalized TPM ratio compared to glucose [19]: 1.9
Log2 differential normalized TPM ratio compared to lactose [19]: −3.7
Transcripts per million (rpm) [19]: 55.9 rpm
Log2 differential normalized TPM ratio compared to glucose [20]: 1.8
Log2 differential normalized TPM ratio compared to lactose [20]: −3.8
Transcripts per million (rpm) [20]: 48.4 rpm
Log2 differential normalized TPM ratio compared to glucose (LBA1459 Galactokinase, COG G): 0.8
Log2 differential normalized TPM ratio compared to lactose (LBA1459 Galactokinase, COG G): −3.9
Transcripts per million (rpm) (LBA1459 Galactokinase, COG G): 42.2 rpm
Log2 differential normalized TPM ratio compared to glucose [21]: −0.1
Transcripts per million (rpm) [21]: 16.8 rpm
Log2 differential normalized TPM ratio compared to glucose [22]: 0.1
Log2 differential normalized TPM ratio compared to lactose [22]: −4.6
Transcripts per million (rpm) [22]: 62.2 rpm
Log2 differential normalized TPM ratio compared to glucose (LBA1464 Transposase, COG L): 0
Log2 differential normalized TPM ratio compared to lactose (LBA1464 Transposase, COG L): −2.4
Transcripts per million (rpm) (LBA1464 Transposase, COG L): 182.7 rpm
Log2 differential normalized TPM ratio compared to glucose [23]: −0.1
Log2 differential normalized TPM ratio compared to lactose [23]: −3.2
Transcripts per million (rpm) [23]: 52.9 rpm
Log2 differential normalized TPM ratio compared to glucose [24]: 1.5
Log2 differential normalized TPM ratio compared to lactose [24]: −7.3
Transcripts per million (rpm) [24]: 14.9 rpm
Log2 differential normalized TPM ratio compared to glucose [25]: 1
Log2 differential normalized TPM ratio compared to lactose [25]: −5.4
Transcripts per million (rpm) [25]: 43.3 rpm
Log2 differential normalized TPM ratio compared to glucose [26]: 0.4
Log2 differential normalized TPM ratio compared to lactose [26]: −0.4
Transcripts per million (rpm) [26]: 6.4 rpm
Log2 differential normalized TPM ratio compared to glucose [27]: 0.7
Log2 differential normalized TPM ratio compared to lactose [27]: −0.4
Transcripts per million (rpm) [27]: 6.1 rpm
Log2 differential normalized TPM ratio compared to glucose [28]: 0.4
Log2 differential normalized TPM ratio compared to lactose [28]: −0.7
Transcripts per million (rpm) [28]: 4.2 rpm
Log2 differential normalized TPM ratio compared to glucose [29]: 0.2
Log2 differential normalized TPM ratio compared to lactose [29]: −0.5
Transcripts per million (rpm) [29]: 4.5 rpm
Log2 differential normalized TPM ratio compared to glucose (LBA1485 Ribokinase, COG G): 0.5
Log2 differential normalized TPM ratio compared to lactose (LBA1485 Ribokinase, COG G): −0.3
Transcripts per million (rpm) (LBA1485 Ribokinase, COG G): 4.5 rpm
Log2 differential normalized TPM ratio compared to glucose [30]: 0.6
Log2 differential normalized TPM ratio compared to lactose [30]: 0.5
Transcripts per million (rpm) [30]: 8.2 rpm
Log2 differential normalized TPM ratio compared to glucose [31]: 0.9
Log2 differential normalized TPM ratio compared to lactose [31]: −0.2
Transcripts per million (rpm) [31]: 37.9 rpm
Log2 differential normalized TPM ratio compared to glucose [32]: 2
Log2 differential normalized TPM ratio compared to lactose [32]: 0.2
Transcripts per million (rpm) [32]: 300.2 rpm
Log2 differential normalized TPM ratio compared to glucose [33]: 1.3
Log2 differential normalized TPM ratio compared to lactose [33]: 0.7
Transcripts per million (rpm) [33]: 618.8 rpm
Log2 differential normalized TPM ratio compared to glucose [34]: 2.6
Log2 differential normalized TPM ratio compared to lactose [34]: 0.6
Transcripts per million (rpm) [34]: 76.9 rpm
Log2 differential normalized TPM ratio compared to glucose [35]: 3.7
Log2 differential normalized TPM ratio compared to lactose [35]: 2.2
Transcripts per million (rpm) [35]: 47.4 rpm
Log2 differential normalized TPM ratio compared to glucose [36]: 0.1
Log2 differential normalized TPM ratio compared to lactose [36]: −0.4
Transcripts per million (rpm) [36]: 23 rpm
Log2 differential normalized TPM ratio compared to glucose [37]: 1
Log2 differential normalized TPM ratio compared to lactose [37]: 0.2
Transcripts per million (rpm) [37]: 84.1 rpm
Log2 differential normalized TPM ratio compared to glucose [38]: 1.3
Log2 differential normalized TPM ratio compared to lactose [38]: 0.4
Transcripts per million (rpm) [38]: 8.4 rpm
Log2 differential normalized TPM ratio compared to glucose [39]: 1.2
Log2 differential normalized TPM ratio compared to lactose [39]: −0.2
Transcripts per million (rpm) [39]: 1.3 rpm
Log2 differential normalized TPM ratio compared to glucose [40]: 0.5
Log2 differential normalized TPM ratio compared to lactose [40]: 0.1
Transcripts per million (rpm) [40]: 10.8 rpm
Log2 differential normalized TPM ratio compared to glucose (LBA1723 Transposase, COG L): 0.5
Log2 differential normalized TPM ratio compared to lactose (LBA1723 Transposase, COG L): 0.2
Transcripts per million (rpm) (LBA1723 Transposase, COG L): 75.5 rpm
Log2 differential normalized TPM ratio compared to glucose [41]: 2.2
Log2 differential normalized TPM ratio compared to lactose [41]: 0.1
Transcripts per million (rpm) [41]: 75.4 rpm
Log2 differential normalized TPM ratio compared to glucose [42]: −0.9
Log2 differential normalized TPM ratio compared to lactose [42]: 0.2
Transcripts per million (rpm) [42]: 55.6 rpm
Log2 differential normalized TPM ratio compared to glucose (LBA1871 Neopullulanase, COG G): 0.9
Log2 differential normalized TPM ratio compared to lactose (LBA1871 Neopullulanase, COG G): 0.2
Transcripts per million (rpm) (LBA1871 Neopullulanase, COG G): 5.1 rpm
Log2 differential normalized TPM ratio compared to glucose [43]: 1
Log2 differential normalized TPM ratio compared to lactose [43]: 0.6
Transcripts per million (rpm) [43]: 6.2 rpm
Log2 differential normalized TPM ratio compared to glucose (LBA1873 Acetate kinase, COG C): 1.2
Log2 differential normalized TPM ratio compared to lactose (LBA1873 Acetate kinase, COG C): −0.2
Transcripts per million (rpm) (LBA1873 Acetate kinase, COG C): 8.3 rpm
Log2 differential normalized TPM ratio compared to glucose (LBA1878 Glycerol kinase, COG C): 0.1
Log2 differential normalized TPM ratio compared to lactose (LBA1878 Glycerol kinase, COG C): 0
Transcripts per million (rpm) (LBA1878 Glycerol kinase, COG C): 9.3 rpm
Log2 differential normalized TPM ratio compared to glucose [44]: −0.3
Log2 differential normalized TPM ratio compared to lactose [44]: 0.1
Transcripts per million (rpm) [44]: 428.6 rpm
number of up-regulated genes (RNA-seq, compared to glucose): 33 genes
number of uniquely induced genes (RNA-seq, up-regulated genes not shared with the other PGs): 0
Log2 differential normalized TPM ratio compared to glucose [45]: −0.2
Log2 differential normalized TPM ratio compared to lactose [45]: −0.9
Transcripts per million (rpm) [45]: 270.7 rpm
Log2 differential normalized TPM ratio compared to glucose [46]: 1.2
Log2 differential normalized TPM ratio compared to lactose [46]: 0.4
Transcripts per million (rpm) [46]: 1141 rpm
Log2 differential normalized TPM ratio compared to glucose [47]: 0.9
Log2 differential normalized TPM ratio compared to lactose [47]: 0.1
Transcripts per million (rpm) [47]: 30.2 rpm
Log2 differential normalized TPM ratio compared to glucose (gene LBA0282 (Hypothetical protein)): 0.7

From patent US20200222474A1, “COMPOSITIONS AND METHODS FOR INCREASING PHYTOCHEMICAL BIOAVAILABLITY AND BIOACTIVITY” (North Carolina State University, priority 2017, published 2020)
